Measurements published in the NIST ThermoML archive (doi:10.1021/acs.jced.5b00367).

Assay: wn = mass fraction of the nth substance listed
Settings: 101 kPa, Liquid, Alternating current cell with electrodes, w1 = 0.01

CCCCCCCCCCCCCCCC[N+](CC)(CC)CCCCCCCCCCCCCCCC.[Br-] [diethyldihexadecylammonium bromide] + O
Settings | electrical conductivity [S/m]
279.15 K | 0.0018
279.25 K | 0.00186
279.45 K | 0.00186
279.55 K | 0.00187
279.65 K | 0.00187
279.85 K | 0.00188
280.15 K | 0.00189
280.35 K | 0.00189
280.55 K | 0.0019
280.65 K | 0.0019
281.05 K | 0.0019
281.15 K | 0.00191
281.55 K | 0.00191
281.85 K | 0.00192
282.05 K | 0.00192
282.25 K | 0.00193
282.75 K | 0.00194
283.05 K | 0.00195
283.15 K | 0.00195
283.45 K | 0.00195
283.65 K | 0.00195
283.85 K | 0.00195
283.95 K | 0.00195
284.15 K | 0.00195
284.55 K | 0.00197
284.75 K | 0.00197
285.25 K | 0.00197
285.45 K | 0.00198
285.55 K | 0.00198
285.75 K | 0.00198
285.85 K | 0.00198
286.15 K | 0.00198
286.25 K | 0.00198
286.55 K | 0.00198
286.65 K | 0.00198
289.15 K | 0.002
290.15 K | 0.00201
290.85 K | 0.00202
291.45 K | 0.00204
291.75 K | 0.00205
292.05 K | 0.00206
292.95 K | 0.00207
295.55 K | 0.00209
296.65 K | 0.0021
297.65 K | 0.00211
298.65 K | 0.00212
299.45 K | 0.00213
300.75 K | 0.00214
301.25 K | 0.00215
302.35 K | 0.00216
303.05 K | 0.00217
303.65 K | 0.00219
304.05 K | 0.0022
305.25 K | 0.00226
305.55 K | 0.00229
305.95 K | 0.00235
306.45 K | 0.00239
306.95 K | 0.00247
307.35 K | 0.00254
307.65 K | 0.00264
307.95 K | 0.0027
308.15 K | 0.00278
308.45 K | 0.00294
308.75 K | 0.00294
308.95 K | 0.00295
309.55 K | 0.00296
310.25 K | 0.00297
311.35 K | 0.00299
312.45 K | 0.00304
312.65 K | 0.00305
313.55 K | 0.00305
313.95 K | 0.00308
314.15 K | 0.00314
316.55 K | 0.00319
317.25 K | 0.00323
318.65 K | 0.00322
318.75 K | 0.00325
319.15 K | 0.00326
320.75 K | 0.00328
320.95 K | 0.00331
321.05 K | 0.00333
322.05 K | 0.0034
322.15 K | 0.0034
323.15 K | 0.00347
